Experimental data reported in paper PMC8518806 (2021).

Tests used:
[1] = test system: BeCA (RNA8-2) (RNA, aptamer) GGAGGUACGUGGACUGCUUAUGCAGUAGGAAGGCCUCC; assay: fluorescence turn-on titration; conditions: 125 mM KCl, 5 mM MgCl2; 20 mM Hepes pH 7.4; 100 nM BC1-DN
[2] = test system: RNA8-1 (RNA, aptamer) GGAGGCAGGGCUUAGUUGAGGUACGUGGACUGCUUAUGCAGUAGGAAGGCCUCACUUUUCCGCCGUUGGCACCAC; assay: fluorescence turn-on titration; conditions: 125 mM KCl, 5 mM MgCl2; 20 mM Hepes pH 7.4; 100 nM BC1-DN
[3] = test system: RNA8-3 (RNA, aptamer) GGAGGUACGUGGAUAGGAAGGCCUCC; assay: fluorescence turn-on titration; conditions: 125 mM KCl, 5 mM MgCl2; 20 mM Hepes pH 7.4; 100 nM BC1-DN
[4] = test system: M1 (RNA, aptamer) GGAGGCACGUGGACUGCUUAUGCAGUAGGAAGGCCUCC; assay: fluorescence turn-on titration; conditions: 125 mM KCl, 5 mM MgCl2; 20 mM Hepes pH 7.4; 100 nM BC1-DN
[5] = test system: M2 (RNA, aptamer) GGAGGGACGUGGACUGCUUAUGCAGUAGGAAGCCCUCC; assay: fluorescence turn-on titration; conditions: 125 mM KCl, 5 mM MgCl2; 20 mM Hepes pH 7.4; 100 nM BC1-DN
[6] = test system: M3 (RNA, aptamer) GGAGGUACGUGGACUGCUUAUGCAGUAGGAAGACCUCC; assay: fluorescence turn-on titration; conditions: 125 mM KCl, 5 mM MgCl2; 20 mM Hepes pH 7.4; 100 nM BC1-DN
[7] = test system: M4 (RNA, aptamer) GGAGGUACGUGGACUGCUUAUGCAGUAGGAAGCCCUCC; assay: fluorescence turn-on titration; conditions: 125 mM KCl, 5 mM MgCl2; 20 mM Hepes pH 7.4; 100 nM BC1-DN
[8] = test system: M5 (RNA, aptamer) GGAGGUACGUGGACUGCUUAUGCAGUAGGAAGUCCUCC; assay: fluorescence turn-on titration; conditions: 125 mM KCl, 5 mM MgCl2; 20 mM Hepes pH 7.4; 100 nM BC1-DN
[9] = test system: M6 (RNA, aptamer) GGAAAUACGUGGACUGCUUAUGCAGUAGGAAGGUUUCC; assay: fluorescence turn-on titration; conditions: 125 mM KCl, 5 mM MgCl2; 20 mM Hepes pH 7.4; 100 nM BC1-DN
[10] = test system: M7 (RNA, aptamer) GGAGUACGUGGACUGCUUAUGCAGUAGGAAGGCUCC; assay: fluorescence turn-on titration; conditions: 125 mM KCl, 5 mM MgCl2; 20 mM Hepes pH 7.4; 100 nM BC1-DN
[11] = test system: M8 (RNA, aptamer) GGAGGUCGUGGACUGCUUAUGCAGUAGGAAGGCCUCC; assay: fluorescence turn-on titration; conditions: 125 mM KCl, 5 mM MgCl2; 20 mM Hepes pH 7.4; 100 nM BC1-DN
[12] = test system: M9 (RNA, aptamer) GGAGGUAGUGGACUGCUUAUGCAGUAGGAAGGCCUCC; assay: fluorescence turn-on titration; conditions: 125 mM KCl, 5 mM MgCl2; 20 mM Hepes pH 7.4; 100 nM BC1-DN
[13] = test system: M10 (RNA, aptamer) GGAGGUACGUGGACUGCUUAUGCAGUAGGAAGCCUCC; assay: fluorescence turn-on titration; conditions: 125 mM KCl, 5 mM MgCl2; 20 mM Hepes pH 7.4; 100 nM BC1-DN
[14] = test system: M11 (RNA, aptamer) GGAGGUACGUGGGCUGCUUAUGCAGCAGGAAGGCCUCC; assay: fluorescence turn-on titration; conditions: 125 mM KCl, 5 mM MgCl2; 20 mM Hepes pH 7.4; 100 nM BC1-DN
[15] = test system: M12 (RNA, aptamer) GGAGGUACGUGGACUGCUUCGGCAGUAGGAAGGCCUCC; assay: fluorescence turn-on titration; conditions: 125 mM KCl, 5 mM MgCl2; 20 mM Hepes pH 7.4; 100 nM BC1-DN
[16] = test system: BeCA (RNA8-2) (RNA, aptamer) GGAGGUACGUGGACUGCUUAUGCAGUAGGAAGGCCUCC; assay: fluorescence turn-on titration (NIR); conditions: 125 mM KCl, 5 mM MgCl2; 20 mM Hepes pH 7.4; 100 nM BC6

| KD [1] [nM] | KD [2] [nM] | KD [3] [nM] | KD [4] [nM] | KD [5] [nM] | KD [6] [nM] | KD [7] [nM] | KD [8] [nM] | KD [9] [nM] | KD [10] [nM] | KD [11] [nM] | KD [12] [nM] | KD [13] [nM] | KD [14] [nM] | KD [15] [nM] | KD [16] [nM] | SMILES |
| --- | --- | --- | --- | --- | --- | --- | --- | --- | --- | --- | --- | --- | --- | --- | --- | --- |
| 230 | 900 ± 200 | > 10000 | 1100 ± 470 | 1700 ± 480 | 620 ± 190 | 4600 ± 1400 | 1300 ± 270 | 350 ± 50 | 200 ± 30 | 1100 ± 440 | 250 ± 60 | 770 ± 180 | 270 ± 80 | 330 ± 120 | – | CN(C)c1ccc2cc(-c3cc(-c4ccc(C(=O)NCCOCCOCCNc5ccc([N+](=O)[O-])cc5[N+](=O)[O-])cc4C(=O)[O-])c4ccc(N(C)C)cc4[o+]3)c(=O)oc2c1 |
| – | – | – | – | – | – | – | – | – | – | – | – | – | – | – | 220 | CN(C)c1ccc2c(c1)OC(c1cc3ccc(N(C)C)cc3oc1=O)=CC21c2ccccc2C(=O)N1C#N (stereo not shown) |
